In ChEMBL document CHEMBL4765394, “From irreversible to reversible covalent inhibitors: Harnessing the andrographolide scaffold for anti-inflammatory action” (Eur J Med Chem, 2020):
Calls of active or inactive are those of the source. The rule behind the calls is not given here.

Tests used:
[1] = Aqueous stability of compound; format: physicochemical; conditions: buffer
RAW264.7 [2] = experiment: Antiinflammatory activity in mouse RAW264.7 cells assessed as inhibition of LPS-induced IL6 release at 5 to 10 uM preincubated for 1 hr followed by LPS stimulation and measured after 24 hrs by ELISA; format: functional, cell-based; conditions: dose 5-10 µM, time 25.0 hrs
RAW264.7 [3] = experiment: Cytotoxicity against mouse RAW264.7 cells assessed as reduction cell viability at 5 to 50 uM measured after 24 hrs by Celltiter-glo assay; format: cell-based; conditions: raw264.7, 24 h, dose 5-50 µM
RAW264.7 [4] = experiment: Antiinflammatory activity in mouse RAW264.7 cells assessed as inhibition of LPS-induced TNFalpha release at 5 to 10 uM preincubated for 1 hr followed by LPS stimulation and measured after 4 hrs by ELISA; format: functional, cell-based; conditions: dose 5-10 µM, time 5.0 hrs
RAW-Blue [5] = experiment: Inhibition of LPS-induced NF-kappaB activity in mouse RAW-Blue cells assessed as reduction in SEAP reporter activity at 5 to 20 uM preincubated for 1 hr followed by LPS stimulation and measured after 8 hrs by SEAP reporter gene assay; format: cell-based; conditions: dose 5-20 µM, time 9.0 hrs
RAW-Blue [6] = experiment: Inhibition of LPS-induced NF-kappaB activity in mouse RAW-Blue cells assessed as reduction in SEAP reporter activity at 5 to 20 uM preincubated for 1 hr followed by LPS stimulation and measured after 24 hrs by SEAP reporter gene assay; format: cell-based; conditions: dose 5-20 µM, time 25.0 hrs
RAW-Blue [7] = experiment: Activation of NF-kappaB activity in mouse RAW-Blue cells assessed as increase in SEAP reporter activity at 5 to 20 uM measured after 24 hrs by SEAP reporter gene assay; format: cell-based; conditions: dose 5-20 µM
RAW-Blue [8] = experiment: Activation of NF-kappaB activity in mouse RAW-Blue cells assessed as increase in SEAP reporter activity at 30 uM measured after 24 hrs in presence of p38 inhibitor SB203580 by SEAP reporter gene assay; format: cell-based
[9] = GSH reactivity in PBS assessed as isomerization measured up to 24 hrs by HPLC-MS analysis; format: ADME; conditions: buffer
[10] = GSH reactivity in PBS assessed as GSH adduct formation measured up to 8 hrs by HPLC-MS analysis; format: ADME; conditions: buffer
[11] = GSH reactivity in PBS assessed as GSH adduct formation by measuring half life by HPLC-MS analysis; format: ADME
[12] = target: RAC-alpha serine/threonine-protein kinase (Mus musculus) (UniProt P31750); experiment: Inhibition of LPS-induced AKT activation in mouse RAW264.7 cells assessed as reduction in AKT phosphorylation measured after 4 hrs by Western blot analysis; format: cell-based
[13] = Effect on total AKT expression in LPS-induced mouse RAW264.7 cells at 5 to 20 uM measured after 4 hrs by Western blot analysis; conditions: raw264.7, 4 h, dose 5-20 µM
[14] = target: T1, Mitogen-activated protein kinase 1 and 3 (ERK2 and ERK1) (Mus musculus) (UniProt P63085+Q63844); experiment: Inhibition of LPS-induced ERK1/2 activation in mouse RAW264.7 cells assessed as reduction in ERK1/2 phosphorylation at 20 uM measured after 4 hrs by Western blot analysis; format: cell-based
[15] = target: T2, Nuclear factor NF-kappa-B p105 subunit (Homo sapiens) (UniProt P19838); experiment: Inhibition of DNA binding activity of human NF-kappaB p50 measured after 1 hr by ELISA
T2 sequence (whole entry): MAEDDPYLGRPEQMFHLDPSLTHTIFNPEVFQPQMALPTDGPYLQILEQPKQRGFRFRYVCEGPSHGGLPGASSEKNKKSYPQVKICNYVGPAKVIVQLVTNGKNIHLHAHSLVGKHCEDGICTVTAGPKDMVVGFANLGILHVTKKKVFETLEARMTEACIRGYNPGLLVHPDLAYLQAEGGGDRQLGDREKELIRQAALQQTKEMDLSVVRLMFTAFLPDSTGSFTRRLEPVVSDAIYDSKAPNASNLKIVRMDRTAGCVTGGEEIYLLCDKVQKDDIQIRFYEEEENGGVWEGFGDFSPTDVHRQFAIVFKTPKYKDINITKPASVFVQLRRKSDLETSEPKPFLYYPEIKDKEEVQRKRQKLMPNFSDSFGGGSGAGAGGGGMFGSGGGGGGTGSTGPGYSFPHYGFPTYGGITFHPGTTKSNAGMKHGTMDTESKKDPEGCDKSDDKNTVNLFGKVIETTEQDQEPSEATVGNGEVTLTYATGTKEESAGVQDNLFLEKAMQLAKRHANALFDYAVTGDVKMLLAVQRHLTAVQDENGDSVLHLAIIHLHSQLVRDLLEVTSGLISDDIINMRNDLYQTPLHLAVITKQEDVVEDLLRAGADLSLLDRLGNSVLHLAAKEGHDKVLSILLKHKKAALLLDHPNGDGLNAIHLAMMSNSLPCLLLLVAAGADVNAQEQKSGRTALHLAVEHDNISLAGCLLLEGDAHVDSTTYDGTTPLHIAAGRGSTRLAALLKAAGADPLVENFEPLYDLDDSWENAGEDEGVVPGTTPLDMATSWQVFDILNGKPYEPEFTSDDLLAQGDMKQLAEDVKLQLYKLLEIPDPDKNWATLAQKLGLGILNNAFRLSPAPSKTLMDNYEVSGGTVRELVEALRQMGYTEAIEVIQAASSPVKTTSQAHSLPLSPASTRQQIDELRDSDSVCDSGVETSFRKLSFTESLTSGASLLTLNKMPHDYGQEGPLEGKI

[16] = target: T2, Nuclear factor NF-kappa-B p105 subunit (Homo sapiens); experiment: Binding affinity to human NF-kappaB p50 assessed as compound-adduct formation by MALDI-TOF analysis
[17] = Cytotoxicity against human L02 cells assessed as reduction in cell viability measured after 24 hrs by Celltiter-glo assay; format: cell-based
[18] = Cytotoxicity against HEK293 cells assessed as reduction in cell viability measured after 24 hrs by Celltiter-glo assay; format: cell-based; conditions: human
Mus musculus [19] = experiment: Antiinflammatory activity in LPS-induced BALB/c mouse model of acute lung injury assessed as reduction in total cell count at 1 mg/kg, ip administered twice daily for 4 days starting 1 hr post LPS challenge by differential staining based flow cytometry relative to control; format: functional; set-up: scale not given: the % may be the effect or the level left; conditions: time 4 day
Mus musculus [20] = experiment: Antiinflammatory activity in LPS-induced BALB/c mouse model of acute lung injury assessed as reduction in neutrophil cell count at 1 mg/kg, ip administered twice daily for 4 days starting 1 hr post LPS challenge by differential staining based flow cytometry relative to control; format: functional; set-up: scale not given: the % may be the effect or the level left; conditions: time 4 day
Mus musculus [21] = experiment: Antiinflammatory activity in ip dosed LPS-induced BALB/c mouse model of acute lung injury assessed as reduction in total cell count administered twice daily for 4 days starting 1 hr post LPS challenge by differential staining based flow cytometry; format: functional, organism-based; conditions: time 4.0 day
Mus musculus [22] = experiment: Antiinflammatory activity in ip dosed LPS-induced BALB/c mouse model of acute lung injury assessed as reduction in neutrophil cell count administered twice daily for 4 days starting 1 hr post LPS challenge by differential staining based flow cytometry; format: functional, organism-based; conditions: time 4.0 day
RAW264.7 [23] = experiment: Activation of JNK phosphorylation in mouse RAW264.7 cells at 50 uM measured after 4 hrs by Western blot analysis; format: cell-based
RAW264.7 [24] = experiment: Activation of JNK phosphorylation in BSO-treated mouse RAW264.7 cells at 50 uM measured after 4 hrs by Western blot analysis
[25] = target: T1, Mitogen-activated protein kinase 1 and 3 (ERK2 and ERK1) (Mus musculus); experiment: Inhibition of LPS-induced ERK1/2 activation in BSO-treated mouse RAW264.7 cells assessed as reduction in ERK1/2 phosphorylation at 10 uM preincubated for 1 hr followed by LPS-stimulation measured after 4 hrs by Western blot analysis; conditions: time 5.0 hrs
[26] = target: RAC-alpha serine/threonine-protein kinase (Mus musculus) (UniProt P31750); experiment: Inhibition of LPS-induced AKT activation in BSO-treated mouse RAW264.7 cells assessed as reduction in AKT phosphorylation at 10 uM preincubated for 1 hr followed by LPS-stimulation measured after 4 hrs by Western blot analysis; conditions: time 5.0 hrs
RAW264.7 [27] = experiment: Antiinflammatory activity in 2 hrs NAC-pretreated mouse RAW264.7 cells assessed as inhibition of LPS-induced TNFalpha release at 10 uM preincubated for 1 hr followed by LPS stimulation and measured after 4 hrs by ELISA relative to control; format: functional; conditions: time 5 hrs
RAW264.7 [28] = experiment: Antiinflammatory activity in 4 hrs NAC-pretreated mouse RAW264.7 cells assessed as inhibition of LPS-induced TNFalpha release at 10 uM preincubated for 1 hr followed by LPS stimulation and measured after 4 hrs by ELISA relative to control; format: functional; conditions: time 5 hrs
RAW264.7 [29] = experiment: Antiinflammatory activity in 24 hrs NAC-pretreated mouse RAW264.7 cells assessed as inhibition of LPS-induced TNFalpha release at 10 uM preincubated for 1 hr followed by LPS stimulation and measured after 4 hrs by ELISA relative to control; format: functional; conditions: time 5 hrs

T1 sequence (P63085 whole entry, looked up): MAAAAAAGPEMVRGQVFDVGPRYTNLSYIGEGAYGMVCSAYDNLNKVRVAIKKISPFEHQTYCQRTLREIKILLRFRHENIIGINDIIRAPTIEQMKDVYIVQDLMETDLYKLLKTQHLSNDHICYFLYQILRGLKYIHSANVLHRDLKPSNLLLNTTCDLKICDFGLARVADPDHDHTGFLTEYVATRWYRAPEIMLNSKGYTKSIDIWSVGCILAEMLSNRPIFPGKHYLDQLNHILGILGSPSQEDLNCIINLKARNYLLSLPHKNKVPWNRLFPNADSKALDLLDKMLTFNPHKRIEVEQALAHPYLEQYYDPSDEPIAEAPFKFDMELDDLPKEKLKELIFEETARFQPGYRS
T1 sequence (Q63844 whole entry, looked up): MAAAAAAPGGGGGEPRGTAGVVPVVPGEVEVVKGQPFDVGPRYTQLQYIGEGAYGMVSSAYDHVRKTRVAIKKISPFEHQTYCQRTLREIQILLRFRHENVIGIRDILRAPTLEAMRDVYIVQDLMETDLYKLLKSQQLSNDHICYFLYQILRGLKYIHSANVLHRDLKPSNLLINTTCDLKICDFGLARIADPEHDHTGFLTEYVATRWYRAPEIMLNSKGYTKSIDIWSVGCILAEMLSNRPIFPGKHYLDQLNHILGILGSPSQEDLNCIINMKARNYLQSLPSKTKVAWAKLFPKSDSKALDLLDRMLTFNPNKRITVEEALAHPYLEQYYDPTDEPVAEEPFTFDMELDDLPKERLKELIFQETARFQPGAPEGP
Sequence of RAC-alpha serine/threonine-protein kinase (Mus musculus) (P31750 whole entry): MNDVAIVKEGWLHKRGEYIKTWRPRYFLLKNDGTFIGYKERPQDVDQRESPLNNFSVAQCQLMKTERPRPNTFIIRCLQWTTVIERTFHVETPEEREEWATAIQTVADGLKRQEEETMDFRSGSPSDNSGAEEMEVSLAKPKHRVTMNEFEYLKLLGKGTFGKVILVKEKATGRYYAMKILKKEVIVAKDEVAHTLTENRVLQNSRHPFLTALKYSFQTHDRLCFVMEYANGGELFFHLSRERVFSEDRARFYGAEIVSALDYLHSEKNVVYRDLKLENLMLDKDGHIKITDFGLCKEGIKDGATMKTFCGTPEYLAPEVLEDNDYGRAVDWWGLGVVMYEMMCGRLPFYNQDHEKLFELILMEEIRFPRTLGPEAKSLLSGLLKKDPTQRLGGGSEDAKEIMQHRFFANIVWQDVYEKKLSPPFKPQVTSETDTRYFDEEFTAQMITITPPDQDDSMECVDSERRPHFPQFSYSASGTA

Stabilty [1]: Stable | Drug metabolism [9]: Metabolite_Notdetected | K [10]: 2.11e-05 M⁻¹ s⁻¹ | t1/2 [11]: 6.47 h | inhibition [12]: Dose-dependent effect | inhibition [14]: Active | inhibition [15]: Dose-dependent effect | Activity [16]: Active | inhibition [25]: Active | inhibition [26]: Active
Compound: C=C1CC[C@@H]2[C@](C)(CO)[C@H](O)CC[C@@]2(C)[C@@H]1C/C=C/C(C)=O
inhibition (RAW264.7 [2]): Active | Activity (RAW264.7 [3]): Toxic | inhibition (RAW264.7 [4]): Active | inhibition (RAW-Blue [5]): Active | inhibition (RAW-Blue [6]): Active | Activity (RAW-Blue [7]): inactive | Activity (RAW-Blue [8]): inactive | Activity [13]: Non-Toxic | CC50 at 24 h [17]: 30.1 µM | CC50 at 24 h [18]: 67 µM | Activity (Mus musculus [19]): >30% | Activity (Mus musculus [20]): >30% | Activity (Mus musculus [21]): Dose-dependent effect | Activity (Mus musculus [22]): Dose-dependent effect | Activity (RAW264.7 [23]): inactive | Activity (RAW264.7 [24]): inactive | inhibition at 10 µM (RAW264.7 [27]): 12% | inhibition at 10 µM (RAW264.7 [28]): 23% | inhibition at 10 µM (RAW264.7 [29]): 51%
